Experiments:
Format in all cases: in vivo
[1] = system: Amaranthus retroflexus; assay: Weeding effect in pre-emergence stage; details: 30 g/ha, 4 weeks
Outline: (§1)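 Pots were kept in the greenhouse for 4 weeks and then rated for growth control on activity-level criteria. Spraying took place immediately after sowing at application rates of 500 to 7.5 g/ha, using an acetone/tween 80 formulation diluted with water, on seeds under 0.5-2 cm of soil.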

[2] = system: Veronica didyma Tenore; assay: Weeding effect in pre-emergence stage; details: 30 g/ha, 4 weeks
Outline: as §1

[3] = system: Descurainia sophia; assay: Weeding effect in pre-emergence stage; details: 30 g/ha, 4 weeks
Outline: as §1

[4] = system: Setaria viridis; assay: Weeding effect in pre-emergence stage; details: 30 g/ha, 4 weeks
Outline: as §1

[5] = system: Capsella bursa-pastoris; assay: Weeding effect in pre-emergence stage; details: 30 g/ha, 4 weeks
Outline: as §1

[6] = system: Abutilon theophrasti; assay: Weeding effect in pre-emergence stage; details: 30 g/ha, 4 weeks
Outline: as §1

[7] = system: Peanut; assay: Pre-emergence stage, crop selectivity; details: 30 g/ha, 4 weeks
Outline: as §1

[8] = system: corn; assay: Pre-emergence stage, crop selectivity; details: 30 g/ha, 4 weeks
Outline: as §1

[9] = system: Soybeans; assay: Pre-emergence stage, crop selectivity; details: 30 g/ha, 4 weeks
Outline: as §1

[10] = system: cotton; assay: Pre-emergence stage, crop selectivity; details: 30 g/ha, 4 weeks
Outline: as §1

[11] = system: Alopecurus japonicus; assay: Weeding effect in post-emergence stage; details: Dose 15 g/ha; level of fresh weight growth control rate
Outline: (§2)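 Compound, dissolved in acetone and diluted in water with Tween 80 plus methyl oleate EC (1.5 liter/ha), is sprayed onto 2-3 leaf potted plants. Rates span 7.5–500 g/ha. After 3 weeks of greenhouse culture, weeding effect is counted as the mean of triplicates.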

[12] = system: Setaria viridis; assay: Weeding effect in post-emergence stage; details: Dose 15 g/ha; level of fresh weight growth control rate
Outline: as §2

[13] = system: Eleusine indica; assay: Weeding effect in post-emergence stage; details: Dose 15 g/ha; level of fresh weight growth control rate
Outline: as §2

[14] = system: Digitaria sanguinalis; assay: Weeding effect in post-emergence stage; details: Dose 15 g/ha; level of fresh weight growth control rate
Outline: as §2

[15] = system: Abutilon theophrasti; assay: Weeding effect in post-emergence stage; details: Dose 15 g/ha; level of fresh weight growth control rate
Outline: as §2

[16] = system: Echinochloa crusgalli; assay: Weeding effect in post-emergence stage; details: Dose 15 g/ha; level of fresh weight growth control rate
Outline: as §2

| Structure (SMILES) | activity level (growth control rate) Amaranthus retroflexus [1] | activity level (growth control rate) Veronica didyma Tenore [2] | activity level (growth control rate) Descurainia sophia [3] | activity level (growth control rate) Setaria viridis [4] | activity level (growth control rate) Capsella bursa-pastoris [5] | activity level (growth control rate) Abutilon theophrasti [6] | plant damage level Peanut [7] | plant damage level Corn [8] | plant damage level Soybeans [9] | plant damage level Cotton [10] | Weeding effect in post-emergence stage, Alopecurus japonicus [11] | Weeding effect in post-emergence stage, Setaria viridis [12] | Weeding effect in post-emergence stage, Eleusine indica [13] | Weeding effect in post-emergence stage, Digitaria sanguinalis [14] | Weeding effect in post-emergence stage, Abutilon theophrasti [15] | Weeding effect in post-emergence stage, Echinochloa crusgalli [16] |
| --- | --- | --- | --- | --- | --- | --- | --- | --- | --- | --- | --- | --- | --- | --- | --- | --- |
| CCOC(=O)COC(=O)[C@@H](C)O/N=C/c1cc(-n2c(=O)cc(C(F)(F)F)n(C)c2=O)c(F)cc1Cl [239(R)] | 5 (Level 5: growth control rate is above 85%) | 5 (Level 5: growth control rate is above 85%) | 5 (Level 5: growth control rate is above 85%) | 5 (Level 5: growth control rate is above 85%) | 5 (Level 5: growth control rate is above 85%) | 5 (Level 5: growth control rate is above 85%) | 0 (Level 0: growth control rate is less than 5%) | 0 (Level 0: growth control rate is less than 5%) | 0 (Level 0: growth control rate is less than 5%) | 0 (Level 0: growth control rate is less than 5%) | 5 (Level 5: growth control rate is above 85%) | 5 (Level 5: growth control rate is above 85%) | 5 (Level 5: growth control rate is above 85%) | 5 (Level 5: growth control rate is above 85%) | 5 (Level 5: growth control rate is above 85%) | 5 (Level 5: growth control rate is above 85%) |
| C[C@@H](O/N=C/c1cc(-n2c(=O)cc(C(F)(F)F)n(C)c2=O)c(F)cc1Cl)C(=O)OCc1ccccn1 [301(R)] | 5 (Level 5: growth control rate is above 85%) | 5 (Level 5: growth control rate is above 85%) | 5 (Level 5: growth control rate is above 85%) | 5 (Level 5: growth control rate is above 85%) | 5 (Level 5: growth control rate is above 85%) | 5 (Level 5: growth control rate is above 85%) | 0 (Level 0: growth control rate is less than 5%) | 0 (Level 0: growth control rate is less than 5%) | 0 (Level 0: growth control rate is less than 5%) | 0 (Level 0: growth control rate is less than 5%) | 5 (Level 5: growth control rate is above 85%) | 5 (Level 5: growth control rate is above 85%) | 5 (Level 5: growth control rate is above 85%) | 5 (Level 5: growth control rate is above 85%) | 5 (Level 5: growth control rate is above 85%) | 5 (Level 5: growth control rate is above 85%) |

— patent publication US20230111310A1, “CARBOXYLIC ACID DERIVATIVE-SUBSTITUTED IMINO ARYL COMPOUND, PREPARATION METHOD THEREFOR, HERBICIDAL COMPOSITION AND USE THEREOF” (Qingdao Kingagroot Chemical Compound Co., Ltd., priority 2020, published 2023)
